Activity calls are given as the source filed them. No cut-off for these calls is given here.
Columns and labels:
MT4 [1] = experiment: Compound was tested for its cytotoxic effect against MT-4 cells at 1 mM; 1 to 10 uM; format: functional; conditions: Homo sapiens, read-out: CD50 (the source's name)
[2] = Compound was tested for its in vitro inhibitory effect on the replication of DNA and RNA viruses at 1 mM; No inhibition; format: functional
MT4 [3] = experiment: Compound was tested for its cytotoxic effect against MT-4 cells at 1 mM; No effect; format: functional, cell-based; conditions: Homo sapiens
MT4 [4] = experiment: Compound was tested for its cytotoxic effect against MT-4 cells at 1 mM;value between 10-100 uM; format: functional; conditions: Homo sapiens, read-out: CD50 (the source's name)

Q: With Nc1nc(O)c2ncn(C(CCO)OCCO)c2n1 (stereo not drawn) as the compound, how does the CC50 (MT4 [1]) read?
A: < 10 µM

Q: And the Activity [2]?
A: inactive

Q: Which results are given for Nc1nc(O)c2ncn(C(CO)OCCO)c2n1 (stereo not drawn)?
A: Activity [2]: inactive; Activity (MT4 [3]): inactive

Q: What does the source list for Nc1nc(O)c2ncn(C(OCCO)C(O)CO)c2n1 (stereo not drawn)?
A: Activity [2]: inactive; Activity (MT4 [3]): inactive

Q: Which CC50 (MT4 [4]) does the source give for Nc1nc(O)c2ncn(C3CC(O)C(O)CO3)c2n1 (stereo not drawn) here?
A: < 100 µM

Q: And the Activity [2]?
A: inactive

From ChEMBL document CHEMBL1151513, “Stereospecific synthesis of chiral acyclic analogues of guanosine” (1992)
